Laboratory results reported in patent publication US8455640B2, “Process for statins and its pharmaceutically acceptable salts thereof” (MSN Laboratories Limited, priority 2006, dated 2013).

Assay: solubility of the calcium salt in aqueous methanol / methanol
Assay type: physicochemical

solubility in an aqueous methanol (calcium salt prepared by the present invention (calcium acetate as calcium source)): freely soluble
solubility in an aqueous methanol (calcium salt prepared by the prior art process (U.S. Pat. No. 5,260,440; sodium chloride byproducts)): poor solubility
Structure (SMILES): CC(C)c1nc(N(C)S(C)(=O)=O)nc(-c2ccc(F)cc2)c1/C=C/[C@@H](O)C[C@@H](O)CC(=O)[O-].CC(C)c1nc(N(C)S(C)(=O)=O)nc(-c2ccc(F)cc2)c1/C=C/[C@@H](O)C[C@@H](O)CC(=O)[O-].[Ca+2] [formula (1a), rosuvastatin calcium]
